We go through five compounds from patent publication US20240294499A1, “TARGETED PROTEIN DEGRADATION USING BIFUNCTIONAL COMPOUNDS THAT BIND UBIQUITIN LIGASE AND TARGET MCL-1 PROTEIN” (Captor Therapeutics S.A., priority 2021, published 2024).

The structures appear in SMILES notation.

Data set [1] concerns the target [MCL-1]-[compound of formula (I)]-[CRBN/DDB1] complex (Homo sapiens, UniProt Q07820+Q96SW2). As to the kind of experiment: AlphaLISA dose response ternary complex formation assay. Type of data set: binding. Conditions: read-out: AlphaLISA dose response Average pEC50 by molecule (converted). In a few lines: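 EC50 comes from dose–response of AlphaLISA luminescence (excitation 680, emission 615 nm), normalised between DMSO background and an internal positive control, with concentrations past the hook point dropped. Ternary complex formed by mixing bead-bound biotin-hMCL-1 and His-CRBN/DDB1 (protein solutions 40 and 200 nM) with compound in 2% DMSO, 30 min, 25 °C.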
A general note: In Alpha technology, singlet oxygen from a donor bead excites a nearby acceptor bead.

In data set [2] the target is MCL-1 protein (Homo sapiens, UniProt Q07820). Put plainly: DMS 114 cells: MCL-1 protein degradation, Western blot. Also noted: endogenous in cells. It is filed as cell-based. The conditions noted are these: DMS 114 cell line, 6 h treatment, 1 μM compound, vs DMSO. The procedure:
The effect of various compounds of the invention on MCL-1 protein degradation in the DMS 114 cell line was investigated, using the degradation assay protocol below.
DMS 114 cells were maintained in Waymouth's MB 752/1 medium, supplemented with penicillin/streptomycin and 10% Fetal Bovine Serum (FBS).
Compound stocks were pre-diluted in DMSO and added directly to the cells growth medium (final DMSO concentration: 0.5%).
DMS 114 cells were detached, collected, centrifuged (250 rcf, 5 min), resuspended in growth medium containing 10% FBS and counted. Cell suspension was then adjusted to 0.25×10^6 cell/ml using growth medium containing 10% FBS. Afterwards, 0.5×10^6 cells were seeded on 6-well plates in 2 mL of medium per well. Plates were then place in the incubator at 37° C. until treatment. Next day, compounds in appropriate concentrations were added to the wells and the plates incubated for additional 6 or 24 hours. DMSO was used as control (final concentration 0.5%).
Following the treatment with the compounds, cells were washed on the plates, lysed with the lysis buffer (2% SDS, 50 mM Tris, pH 8.0, 100 U/ml Pierce Universal Nuclease for Cell Lysis, complete EDTA-free Protease Inhibitor Cocktail) and incubated on ice for 45 min. The amount of protein was determined via BCA assay, and the equal quantity of each sample was loaded on the precast gel for the protein separation. Following the electrophoresis and transfer to the membrane, the membrane was stained with Ponceau (0.1% (w/v) Ponceau in 5% acetic acid). After total protein detection, the stain was washed out using TBST. After the antibody staining for MCL-1, PARP, cleaved Caspase 3 and α-tubulin, the membranes were washed and signals developed.
Densitometric values for MCL-1 were normalized to total protein level (the Ponceau Staining). [%] of protein reduction is calculated in comparison to the cells treated with DMSO, which stand for 0%.
The results for the 6 h treatment with 1 μM compounds are shown in Table 10, using the following labels: • <50% for 0-49% of MCL-1 protein reduction, • ≥50% for 50-74% of MCL-1 protein reduction, • ≥75% for 75-100% of MCL-1 protein reduction.
Background: Immunoblotting shows a protein as a band on a membrane.

Data set [3] deals with hiPSC-CM (iCELL Cardiomyocytes). Put plainly: Cardiac safety: hiPSC-CM cell viability assay (CTG). It is filed as cell-based, human. Conditions: for IC50: Homo sapiens, Cardiomyocyte, 336 h, viability, CTG assay, treatment until day 14, read-out: Average pIC50 by molecule hiPSC-CM (converted); for activity in viability assay in cardiomyocytes: as opposed to reference compounds MIK665 and AZD5991. The source says: The effect of various compounds of the invention and a reference compounds AZD5991 and MIK665 on cardiac safety was investigated by the evaluation of viability with CTG assay (Promega; cat #G7572) in iCELL™ Cardiomyocytes from FUJIFILM Cellular Dynamics (Catalog number: 11713).
Cells were thawed, counted using an automated cell counter (TC20, Bio-Rad) and seeded in 96 well plates (Greiner-BioOne; 655098) previously coated with 0.1% gelatin (Sigma-Aldrich; G1890) using Plating Medium (#M1001) following the instructions of the iCELL cardiomyocytes User Guide. Forty ml of Plating Medium was used to equally distribute the cells in four 96 well plates. Cells were then placed in the incubator at 37° C., 5% CO2 and left undisturbed for 48 hours. Compounds were serially diluted in DMSO and then further diluted to final assay concentration using maintenance medium (#M1003). Final DMSO concentration was 0.5%. Forty eight hours after plating, non-adherent cells and debris were washed as described in the User Guide. Plating medium was then replaced with maintenance medium containing diluted compounds or DMSO (as control). Medium was then changed every 2 days with fresh medium containing compounds or DMSO until the end of the treatment. On day 14, only medium without compounds was used immediately before the CTG assay. Luminescence signal was measured using a CLARIOstar Plus Multi-Mode Microplate Reader (574-590 nm).

Chain of [MCL-1]-[compound of formula (I)]-[CRBN/DDB1] complex (Q07820 whole entry): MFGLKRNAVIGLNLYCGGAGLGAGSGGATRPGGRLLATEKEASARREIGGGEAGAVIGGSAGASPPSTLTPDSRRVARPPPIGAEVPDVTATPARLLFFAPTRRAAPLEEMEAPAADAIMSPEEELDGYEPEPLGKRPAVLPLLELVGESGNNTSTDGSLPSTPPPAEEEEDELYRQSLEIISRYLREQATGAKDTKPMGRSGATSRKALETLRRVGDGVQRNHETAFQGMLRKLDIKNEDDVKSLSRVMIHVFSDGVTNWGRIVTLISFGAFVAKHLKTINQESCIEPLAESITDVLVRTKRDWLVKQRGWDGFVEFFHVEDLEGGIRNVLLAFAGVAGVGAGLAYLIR
Chain of [MCL-1]-[compound of formula (I)]-[CRBN/DDB1] complex (Q96SW2 whole entry): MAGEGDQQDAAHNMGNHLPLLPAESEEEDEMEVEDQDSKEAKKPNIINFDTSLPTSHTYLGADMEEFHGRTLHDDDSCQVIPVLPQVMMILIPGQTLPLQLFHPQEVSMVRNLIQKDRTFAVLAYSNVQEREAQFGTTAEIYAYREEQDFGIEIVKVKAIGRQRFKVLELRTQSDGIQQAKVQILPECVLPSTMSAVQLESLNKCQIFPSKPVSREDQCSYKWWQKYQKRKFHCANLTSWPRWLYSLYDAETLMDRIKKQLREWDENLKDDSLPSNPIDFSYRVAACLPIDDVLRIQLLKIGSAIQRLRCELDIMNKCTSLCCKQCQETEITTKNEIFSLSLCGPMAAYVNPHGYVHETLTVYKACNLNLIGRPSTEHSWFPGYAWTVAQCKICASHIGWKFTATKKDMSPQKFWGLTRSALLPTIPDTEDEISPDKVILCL
Chain of [MCL-1]-[compound of formula (I)]-[CRBN/DDB1] complex (Q16531 whole entry partner): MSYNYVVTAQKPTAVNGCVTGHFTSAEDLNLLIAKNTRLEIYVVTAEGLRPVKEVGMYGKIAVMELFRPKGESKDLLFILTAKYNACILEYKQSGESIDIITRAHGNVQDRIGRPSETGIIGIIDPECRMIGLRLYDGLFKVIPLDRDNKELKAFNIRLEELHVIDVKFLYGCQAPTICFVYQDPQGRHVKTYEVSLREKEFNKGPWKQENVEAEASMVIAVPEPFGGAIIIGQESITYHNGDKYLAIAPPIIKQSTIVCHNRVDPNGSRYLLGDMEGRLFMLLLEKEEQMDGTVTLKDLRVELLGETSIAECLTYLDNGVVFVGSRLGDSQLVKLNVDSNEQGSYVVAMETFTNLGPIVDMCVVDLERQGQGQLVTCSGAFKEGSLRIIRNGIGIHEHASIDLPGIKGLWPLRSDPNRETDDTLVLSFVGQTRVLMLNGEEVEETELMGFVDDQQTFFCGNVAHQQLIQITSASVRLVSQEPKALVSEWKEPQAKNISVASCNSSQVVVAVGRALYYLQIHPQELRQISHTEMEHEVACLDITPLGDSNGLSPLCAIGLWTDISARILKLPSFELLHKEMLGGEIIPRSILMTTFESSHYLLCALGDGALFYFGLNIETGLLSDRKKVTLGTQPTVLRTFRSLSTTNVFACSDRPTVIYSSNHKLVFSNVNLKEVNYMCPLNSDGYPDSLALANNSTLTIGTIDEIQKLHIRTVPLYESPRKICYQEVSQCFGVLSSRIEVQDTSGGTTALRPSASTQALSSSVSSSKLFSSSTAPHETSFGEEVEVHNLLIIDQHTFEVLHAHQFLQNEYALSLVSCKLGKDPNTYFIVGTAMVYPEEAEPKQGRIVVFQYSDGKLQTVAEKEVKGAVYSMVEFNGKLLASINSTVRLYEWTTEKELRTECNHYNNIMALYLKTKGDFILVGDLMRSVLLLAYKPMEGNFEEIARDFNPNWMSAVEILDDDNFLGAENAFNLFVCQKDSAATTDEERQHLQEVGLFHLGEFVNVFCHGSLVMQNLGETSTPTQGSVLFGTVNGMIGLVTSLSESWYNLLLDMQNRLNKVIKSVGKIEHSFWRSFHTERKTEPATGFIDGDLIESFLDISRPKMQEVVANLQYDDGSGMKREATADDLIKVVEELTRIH
Chain of MCL-1 protein (Q07820 whole entry): as the sequence (Q07820 whole entry) above

Turning to `Cc1nn(C)c(C)c1-c1c(F)ccc2c(CCCOc3cccc4cc(F)ccc34)c(C(=O)O)n(CCN3CCN(C(=O)COc4cccc5c4C(=O)N(C4CCC(=O)NC4=O)C5=O)CC3)c12` (centres unmarked) [Compound 215, 1-{2-[4-(2-{[2-(2,6-dioxopiperidin-3-yl)-1,3-dioxo-2,3-dihydro-1H-isoindol-4-yl]oxy}acetyl)piperazin-1-yl]ethyl}-6-fluoro-3-{3-[(6-fluoronaphthalen-1-yl)oxy]propyl}-7-(1,3,5-trimethyl-1H-pyrazol-4-yl)-1H-indole-2-carboxylic acid], the EC50 in data set [1] is under 100 nM.
`Cc1nn(C)c(C)c1-c1c(Cl)ccc2c(CCCOc3cccc4cc(F)ccc34)c(C(=O)O)n(CCN3CCN(C(=O)Cn4c(C)nc5c(C(=O)NC6CCC(=O)NC6=O)cccc54)CC3)c12` (centres unmarked) [Compound 268, 6-chloro-1-{2-[4-(2-{4-[(2,6-dioxopiperidin-3-yl)carbamoyl]-2-methyl-1H-1,3-benzodiazol-1-yl}acetyl)piperazin-1-yl]ethyl}-3-{3-[(6-fluoronaphthalen-1-yl)oxy]propyl}-7-(1,3,5-trimethyl-1H-pyrazol-4-yl)-1H-indole-2-carboxylic acid]: the “Western blot, % of protein reduction” value in data set [2] is listed as at least 75%. In data set [3], the IC50 is over 39.8 µM and the “activity in viability assay in cardiomyocytes” value (from here on “activity in viability assay”) is given as “much lower activity”.
In the case of `Cc1nn2c(c1-c1c(Cl)ccc3c(CCCOc4cccc5cc(F)ccc45)c(C(=O)O)n(CCN4CCN(C(=O)COc5cccc6c5CN(C5CCC(=O)NC5=O)C6=O)CC4)c13)COCC2` (centres unmarked) [Compound 346, 6-Chloro-1-(2-(4-(2-((2-(2,6-dioxopiperidin-3-yl)-1-oxoisoindolin-4-yl)oxy)acetyl)piperazin-1-yl)ethyl)-3-(3-((6-fluoronaphthalen-1-yl)oxy)propyl)-7-(2-methyl-6,7-dihydro-4H-pyrazolo[5,1-c][1,4]oxazin-3-yl)-1H-indole-2-carboxylic acid], the “Western blot, % of protein reduction” value in data set [2] is at least 75%. Moreover, the EC50 in data set [1] was under 100 nM. Moreover, in data set [3], the IC50 was 10 µM and the “activity in viability assay” value was “much lower activity”.
With `Cc1nn(C)c(C)c1-c1c(Cl)ccc2c(CCCOc3cccc4ccccc34)c(C(=O)O)n(CCN3CCN(C(=O)COc4cccc5c4C(=O)N(C4CCC(=O)NC4=O)C5=O)CC3)c12` (centres unmarked) [Compound 204, 6-chloro-1-(2-(4-(2-((2-(2,6-dioxopiperidin-3-yl)-1,3-dioxoisoindolin-4-yl)oxy)acetyl)piperazin-1-yl)ethyl)-3-(3-(naphthalen-1-yloxy)propyl)-7-(1,3,5-trimethyl-1H-pyrazol-4-yl)-1H-indole-2-carboxylic acid], the “Western blot, % of protein reduction” value in data set [2] is recorded as at least 50%. Further, the EC50 in data set [1] is under 100 nM.
For the compound `Cc1nn(C)c(C)c1-c1c(Cl)ccc2c(CCCOc3cccc4cc(F)ccc34)c(C(=O)O)n(CCN3CCN(C(=O)COc4cccc5c4CN(C4CCC(=O)NC4=O)C5=O)CC3)c12` (centres unmarked) [Compound 220, 6-chloro-1-{2-[4-(2-{[2-(2,6-dioxopiperidin-3-yl)-1-oxo-2,3-dihydro-1H-isoindol-4-yl]oxy}acetyl)piperazin-1-yl]ethyl}-3-{3-[(6-fluoronaphthalen-1-yl)oxy]propyl}-7-(1,3,5-trimethyl-1H-pyrazol-4-yl)-1H-indole-2-carboxylic acid], in data set [2], the “Western blot, % of protein reduction” value is given as at least 75%. Also, in data set [1], the EC50 is under 100 nM. In data set [3], the IC50 is 10 µM and the “activity in viability assay” value was “much lower activity”.
